Data: ChEMBL document CHEMBL1132526, “Spiro-imidazo[1,2-a]indeno[1,2-e]pyrazine-4-one derivatives are mixed AMPA and NMDA glycine-site antagonists active in vivo” (Bioorg Med Chem Lett, 1999)

What was measured:
[1] = target: T1, Glutamate receptor ionotropic, AMPA (Rattus norvegicus, UniProt P19490+P19491+P19492+P19493); assay: In vitro binding affinity towards ionotropic glutamate receptor AMPA using [3H]AMPA as radioligand in rat cortical membrane preparations; type: cell membranes
Glutamate NMDA receptor = assay: In vitro binding affinity towards glycine modulatory site on the NMDA receptors using [3H]DCKA as radioligand in rat cortical membrane preparations; type: cell membranes
Mus musculus [2] = assay: In vivo activity determined by Maximum electroshock induced seizures (MES) assay in mice after ip administration; type: functional
[3] = target: T1, Glutamate receptor ionotropic, AMPA; assay: In vitro binding affinity towards Ionotropic glutamate receptor AMPA using [3H]AMPA as radioligand in rat cortical membrane preparations; type: cell membranes
Mus musculus [4] = assay: In vivo activity determined by Maximum electroshock induced seizures (MES) assay in mice after iv administration; type: functional
[5] = Mus musculus, ip, read-out: ED50

| Structure (SMILES) | IC50 [1] [nM] | IC50 (Glutamate NMDA receptor) [nM] | ED50 (Mus musculus [2]; [5]) [mg/kg] | IC50 [3] [nM] | ED50 (Mus musculus [2]) [mg/kg] | ED50 (Mus musculus [4]) [mg/kg] | ED50 (Mus musculus [4]; Mus musculus, iv, read-out: ED50) [mg/kg] |
| --- | --- | --- | --- | --- | --- | --- | --- |
| CNC1(C)c2ccccc2-c2nc(O)c3nccn3c21 (configuration not stated) | 3400 | 2740 | – | – | – | – | – |
| Oc1nc2c(n3ccnc13)Cc1ccccc1-2 | 760 | 3000 | 62 | – | – | – | – |
| CC1(N)c2ccccc2-c2nc(O)c3nccn3c21 (configuration not stated) | 2500 | 1400 | 30 | – | – | – | – |
| Oc1nc2c(n3ccnc13)C1(CCCN1Cc1ccccc1)c1ccccc1-2 (configuration not stated) | 10000 | 1300 | – | – | – | – | – |
| CC(C)(C)OC(=O)N1CCCC12c1ccccc1-c1nc(O)c3nccn3c12 (configuration not stated) | > 10000 | 600 | – | – | – | – | – |
| CCCC1(N)c2ccccc2-c2nc(O)c3nccn3c21 (configuration not stated) | 420 | 520 | 80 | – | – | – | – |
| O=C1CCC2(N1)c1ccccc1-c1nc(O)c3nccn3c12 (configuration not stated) | 1500 | 1700 | – | – | – | – | – |
| CCCCC1(N)c2ccccc2-c2nc(O)c3nccn3c21 (configuration not stated) | 1700 | 300 | – | – | – | – | – |
| CNC(=O)N1CCCC12c1ccccc1-c1nc(O)c3nccn3c12 (configuration not stated) | 4000 | 1700 | – | – | – | – | – |
| Oc1nc2c(n3ccnc13)C1(CCNC1)c1ccccc1-2 (configuration not stated) | 200 | 640 | > 80 | – | – | – | – |
| O=C(O)CCC(=O)N1CCCC12c1ccccc1-c1nc(O)c3nccn3c12 (configuration not stated) | 360 | 10000 | 10 | – | – | – | – |
| Oc1nc2c(n3ccnc13)C1(CCCCN1)c1ccccc1-2 (configuration not stated) | 390 | 1180 | 45 | – | – | – | – |
| NCC(=O)N1CCCC12c1ccccc1-c1nc(O)c3nccn3c12 (configuration not stated) | 830 | 2800 | 70 | – | – | – | – |
| CC(=O)N1CCCC12c1ccccc1-c1nc(O)c3nccn3c12 (configuration not stated) | 610 | 560 | – | – | – | – | – |
| Oc1nc2c(n3ccnc13)C1(CCCN1)c1ccccc1-2 (configuration not stated) | – | 280 | 80 | 250 | – | – | – |
| Oc1nc2c(n3ccnc13)C1(CCNCC1)c1ccccc1-2 | 380 | 2000 | – | – | – | – | – |
| CC1(C)c2ccccc2-c2nc(O)c3nccn3c21 | 4400 | 1000 | – | – | – | – | – |
| Oc1nc2c(n3ccnc13)C1(CC1)c1ccccc1-2 | 2300 | 600 | – | – | – | – | – |
| O=C(Nc1ccccc1)N1CCCC12c1ccccc1-c1nc(O)c3nccn3c12 (configuration not stated) | 7100 | 130 | – | – | – | – | – |
| Oc1nc2c(n3ccnc13)C1(CCCC1)c1ccccc1-2 | 1600 | 1400 | – | – | – | – | – |
| CCN1CCCC12c1ccccc1-c1nc(O)c3nccn3c12 (configuration not stated) | 620 | 530 | 54 | – | – | – | – |
| O=C(NCc1ccccc1)N1CCCC12c1ccccc1-c1nc(O)c3nccn3c12 (configuration not stated) | 10000 | 900 | – | – | – | – | – |
| CCCN1CCCC12c1ccccc1-c1nc(O)c3nccn3c12 (configuration not stated) | 4300 | 470 | – | – | – | – | – |
| CN1CCCC12c1ccccc1-c1nc(O)c3nccn3c12 (single isomer, unassigned; (-)) | 4900 | 1160 | – | – | 80 | – | – |
| CN1CCCC12c1ccccc1-c1nc(O)c3nccn3c12 (stereo in doubt; 3e) | 200 | 420 | – | – | 31 | 10 | – |
| CN1CCCC12c1ccccc1-c1nc(O)c3nccn3c12 (stereo in doubt; (+)-3e) | 86 | 172 | – | – | 17 | – | 7 |
| O=C(O)[C@@H]1C[C@H]2C[C@@H](CCc3nn[nH]n3)CC[C@H]2CN1 [TEZAMPANEL ANHYDROUS] | 600 | > 10000 | 4 | – | – | – | – |
| O=c1[nH]c2cc(-n3ccnc3)c([N+](=O)[O-])cc2[nH]c1=O [YM-90K] | 350 | 10400 | 12 | – | – | – | – |
